Results on 2 compounds are retold here after PMC7022466, “Developing Clinically Relevant Dissolution Specifications for Oral Drug Products—Industrial and Regulatory Perspectives” (Pharmaceutics, 2019).

Details of data set [1]: method as in PMID 25182387. Particulars: pH 4.5 and 6.8; cited from earlier work.
Details of data set [2]: method as in PMID 25182387. Particulars: cited from earlier work.
For data set [3] the following is noted: cited from earlier work.
For data set [4] the following is noted: virtual simulation, 120 mg tablets; cited from earlier work.
A short description of data set [5]: Solubility in biorelevant media. Format: physicochemical. The source says:
(§1) In a first step, the physico-chemical characteristics of both API forms were compared in biorelevant media. Table 1 provides an overview of the solubility data and intrinsic dissolution properties. For both API forms, the compound is practically insoluble in water, irrespective of pH, but it undergoes substantial solubilization in the presence of bile. […] However, as the solubility of the newly isolated form is about 40% lower when compared to canagliflozin hemihydrate, the bioavailability in the fasted state conditions remains uncertain.

The next data set is described as follows: BCS classification. In kind it is physicochemical. The source says: The Biopharmaceutics Classification System (BCS) provides a well-established framework for assessing the biopharmaceutics risk of immediate release drug products, based on properties of the Active Pharmaceutical Ingredient (API) and drug product. The compounds are classified into one of four groups, according to their solubility and permeability properties. Compounds in BCS Class 1 (high solubility, high permeability) and BCS Class 3 (high solubility, low permeability) are eligible for biowaivers, i.e., the requirement for an in vivo bioequivalence study is waived if certain requirements are met. For the development of CRDS for these compounds, the BCS effectively acts as an accepted body of ‘prior knowledge’, as the ability of dissolution in simple aqueous buffers across the physiological pH range to ensure in vivo bioequivalence is already well established. This can form the basis of CRDS for BCS Class 1 and 3 compounds, unless additional data are generated to justify the further widening of these limits for a specific drug product.
During the experiments for continuous process improvements of JNJ-1, a new crystal form has been isolated from the drug substance crude crystallization step. The new form appeared to be the thermodynamically favoured form in the process conditions. […]

Data set [6] can be described thus: Food effect (high-fat meal) on absorption. In kind it is in vivo. As to conditions: clinically relevant dose strengths.
Source text: as §1
The integration of the biopharmaceutical parameters relevant for drug absorption in a more physiological context further expanded the risk assessment. For this, a PBBM model was developed and validated for JNJ-1 while using GastroPlus™ (version 8.5). Based on the available physicochemical properties, in vitro biopharmaceutical experimentation, biorelevant dissolution data, and clinical PK parameters, the model was able to simulate the in vivo observed clinical PK data.

Data set [7] is described as follows: Intrinsic dissolution rate in biorelevant media. In kind it is physicochemical.
Source text: as §1

Where two headings read alike, the source gives them in different places.

Turning to `Cc1ccc(-c2ncc(Cl)cc2-c2ccc(S(C)(=O)=O)cc2)cn1` [etoricoxib], the “F2 similarity test of dissolution profiles between two sites” value in data set [1] was “failed”. Besides, the BCS class result in data set [2] is “BCS II”. Besides, in data set [3], the “Bioequivalence of formulations from the two sites, clinical study” value is reported as “bioequivalent”. Also, the “Predicted AUC0-120 hr and Cmax bioequivalence of two sites formulations” value in data set [4] was “bioequivalent”.
For `Cc1ccc([C@@H]2O[C@H](CO)[C@@H](O)[C@H](O)[C@H]2O)cc1Cc1ccc(-c2ccc(F)cc2)s1.O` [Registered crystal form, canagliflozin hemihydrate], the “Solubility FaSSIF” value in data set [5] (FaSSIF) came to 540 µg/mL. Further, in data set [5] (FeSSIF), the “Solubility FeSSIF” value is 5000 µg/mL. Moreover, the “Solubility SGF” value in data set [5] (SGF) amounted to 37 µg/mL. Moreover, the BCS class result in “BCS classification” is listed as “BCS class 4”. For the same compound, in data set [6], the “Effect of a high-fat meal on absorption” value was “absence of any effect”. In data set [7] (FaSSIF), the “Intrinsic Dissolution Rate FaSSIF” value is on record as 13.8 µg/min/cm^2. Moreover, the “Intrinsic Dissolution Rate FeSSIF” value in data set [7] (FeSSIF) is recorded as 157.9 µg/min/cm^2. Besides, the “Intrinsic Dissolution Rate SGF” value in data set [7] (SGF) is on record as 3.9 µg/min/cm^2.
